This assay relates to mouse leukemia L-1210 cells. Briefly: inhibitory effect on the proliferation of mouse leukemia L-1210 cells. The class given is cell-based. The conditions noted are these: L1210; 50% inhibitory concentration; proliferation of mouse leukemia L-1210 cells (1 x 10⁶ cells/ml). Here is the method:
Compound 683 of the present invention, as well as the structurally related X-14881 D, was tested for inhibitory effect on the proliferation of mouse leukemia L-1210 cells(1 x 10⁶ cells/ml). The 50% inhibitory concentration values thereof are as follows.

≈ marks a conversion by molar mass, not a printed value. Some results are limits rather than exact numbers.

With `COc1cccc2c1C(O)C1(O)C=CC3=C(C(=O)CC(C)C3O)C1C2O` (centres unmarked) [X-14881 D], the IC50 was above 100 µg/mL.
`COc1cccc2c1C(O)C13C=CC4=C(C(=O)CC(C)C4O)C1(O3)C2O` (centres unmarked) [Compound 683] had an IC50 of 3 µg/mL (≈ 8.42 µM).

Broadly, the IC50 is the point on the concentration scale where inhibition reaches its midpoint.

The record behind these values is EP0435221A2, “New benzanthracene compound and a process for preparing the same” (HOECHST JAPAN LIMITED, priority 1989, dated 1991).
